The structures appear in SMILES notation. Bounds are passed on as bounds.

These results are taken from patent publication US20240217990A1 (Gilead Sciences, Inc., priority 2021, published 2024).

One experiment deals with T1, TLR7 (Homo sapiens, UniProt Q9NYK1).
T1 construct: Human peripheral blood mononuclear cells (PBMCs) consist of lymphocytes, monocytes and dendritic cells that express TLR7, TLR8 and TLR9; endogenous in cells; host or cells: cryopreserved human PBMCs from healthy donors
T1 sequence (Q9NYK1 27-1049): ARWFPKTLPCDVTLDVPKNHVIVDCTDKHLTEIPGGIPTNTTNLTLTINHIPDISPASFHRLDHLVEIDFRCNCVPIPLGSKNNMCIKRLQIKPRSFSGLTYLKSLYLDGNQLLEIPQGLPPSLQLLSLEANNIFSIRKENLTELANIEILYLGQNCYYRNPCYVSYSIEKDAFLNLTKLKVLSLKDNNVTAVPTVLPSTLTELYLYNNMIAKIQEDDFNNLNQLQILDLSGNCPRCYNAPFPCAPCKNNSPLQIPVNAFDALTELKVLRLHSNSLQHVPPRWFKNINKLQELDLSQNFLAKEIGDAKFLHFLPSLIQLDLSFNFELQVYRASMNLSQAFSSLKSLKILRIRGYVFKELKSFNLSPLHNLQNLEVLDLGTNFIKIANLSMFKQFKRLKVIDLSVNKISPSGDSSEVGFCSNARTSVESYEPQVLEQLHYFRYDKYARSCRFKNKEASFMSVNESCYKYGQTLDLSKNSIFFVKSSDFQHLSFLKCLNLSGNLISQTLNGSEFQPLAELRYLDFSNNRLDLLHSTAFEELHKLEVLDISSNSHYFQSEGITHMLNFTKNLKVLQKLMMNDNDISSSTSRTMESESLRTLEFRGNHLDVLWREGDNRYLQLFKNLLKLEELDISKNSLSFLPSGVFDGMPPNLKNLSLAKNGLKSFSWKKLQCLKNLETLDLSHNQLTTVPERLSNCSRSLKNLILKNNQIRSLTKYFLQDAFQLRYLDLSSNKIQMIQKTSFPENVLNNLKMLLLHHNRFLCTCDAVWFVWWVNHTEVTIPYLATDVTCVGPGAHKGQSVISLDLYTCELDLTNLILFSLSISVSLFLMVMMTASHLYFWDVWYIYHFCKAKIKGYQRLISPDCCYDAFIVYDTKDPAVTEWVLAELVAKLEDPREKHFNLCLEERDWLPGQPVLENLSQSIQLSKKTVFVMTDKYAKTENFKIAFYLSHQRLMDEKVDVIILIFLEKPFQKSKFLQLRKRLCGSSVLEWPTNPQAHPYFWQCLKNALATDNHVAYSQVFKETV
In words: TLR7 human PBMC cell-based assay (antagonist, GS-986 stimulated cytokine release). The conditions noted are these: human PBMCs; TLR7 agonist GS-986 400 nM, 6 hours; cytokines (IL-6 and IFNα) in supernatant; read-out: TLR-7 EC50. The method in brief:
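Cryopreserved healthy-donor PBMCs (100,000/well, RPMI-1640 + 10% FBS) pre-incubated 1 h at 37 °C with antagonist (10-point dose response, quadruplicate), then stimulated 6 h with GS-986 at 400 nM final. Supernatant IL-6 and IFNα measured by electrochemiluminescence immunoassay; EC50 from sigmoidal fit.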

Another experiment addresses T2, TLR8 (Homo sapiens, UniProt Q9NR97).
T2 construct: Human peripheral blood mononuclear cells (PBMCs) consist of lymphocytes, monocytes and dendritic cells that express TLR7, TLR8 and TLR9; endogenous in cells; host or cells: cryopreserved human PBMCs from healthy donors
T2 sequence (Q9NR97 27-1041): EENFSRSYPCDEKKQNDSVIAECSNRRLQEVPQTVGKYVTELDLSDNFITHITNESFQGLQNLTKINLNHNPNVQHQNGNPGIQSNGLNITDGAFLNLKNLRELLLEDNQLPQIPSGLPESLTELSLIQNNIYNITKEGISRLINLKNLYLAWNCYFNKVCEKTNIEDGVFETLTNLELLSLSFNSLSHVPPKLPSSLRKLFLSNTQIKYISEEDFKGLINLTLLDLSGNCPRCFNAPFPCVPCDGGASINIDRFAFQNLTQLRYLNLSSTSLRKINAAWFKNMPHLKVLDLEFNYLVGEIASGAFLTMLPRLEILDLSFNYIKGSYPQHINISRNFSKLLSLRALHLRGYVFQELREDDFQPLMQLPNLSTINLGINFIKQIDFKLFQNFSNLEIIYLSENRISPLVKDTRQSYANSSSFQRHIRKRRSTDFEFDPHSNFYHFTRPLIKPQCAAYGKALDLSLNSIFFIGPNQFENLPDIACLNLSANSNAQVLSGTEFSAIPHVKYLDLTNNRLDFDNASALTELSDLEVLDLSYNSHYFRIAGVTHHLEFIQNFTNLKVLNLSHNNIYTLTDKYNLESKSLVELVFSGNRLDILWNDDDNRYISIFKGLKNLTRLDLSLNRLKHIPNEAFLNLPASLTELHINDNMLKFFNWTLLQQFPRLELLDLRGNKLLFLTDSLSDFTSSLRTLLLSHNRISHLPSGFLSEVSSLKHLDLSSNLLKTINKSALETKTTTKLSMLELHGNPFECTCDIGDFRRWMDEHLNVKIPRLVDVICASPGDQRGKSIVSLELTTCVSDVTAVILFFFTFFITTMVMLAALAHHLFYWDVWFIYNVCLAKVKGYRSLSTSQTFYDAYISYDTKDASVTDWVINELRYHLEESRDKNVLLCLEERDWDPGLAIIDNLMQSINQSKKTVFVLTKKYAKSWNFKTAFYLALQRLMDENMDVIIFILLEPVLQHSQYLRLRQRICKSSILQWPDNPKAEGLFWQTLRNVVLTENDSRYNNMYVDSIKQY
In words: TLR8 human PBMC cell-based assay (antagonist, Compound A stimulated cytokine release). The settings on record: human PBMCs; TLR8 agonist Compound A 800 nM, 6 hours; cytokines (TNFa and IL 12p40) in supernatant; read-out: TLR-8 EC50. The method, boiled down: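 Cryopreserved donor PBMCs (100,000/well, RPMI + 10% FBS) were preincubated 1 h with antagonist (10-point dose response, quadruplicate), then stimulated with Compound A (800 nM final) for 6 h at 37 °C. TNFa and IL-12p40 in supernatants were measured by electrochemiluminescence; sigmoidal fits gave EC50.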

Broadly, the EC50 is the concentration that produces a half-maximal response. In the case of `Cc1cc(-c2[nH]c3cc(C(=O)N(C)C4CCNCC4)sc3c2C(C)C)cn2ncnc12` [Example 56, 6-isopropyl-N-methyl-5-(8-methyl-[1,2,4]triazolo[1,5-a]pyridin-6-yl)-N-(4-piperidyl)-4H-thieno[3,2-b]pyrrole-2-carboxamide], the EC50 at TLR7 stood at 0.5 nM; on TLR8, 10.2 nM.

`Cc1cc(-c2[nH]c3cc(C(=O)N(C)[C@@H]4CNC[C@@H]4F)sc3c2C(C)C)cn2ncnc12` [Example 57]: the EC50 on TLR7 stood at 1.7 nM; at TLR8, 12.7 nM.

On to `Cc1cc(-c2[nH]c3cc(C(=O)N(C)[C@H]4CNC[C@@H]4F)sc3c2C(C)C)cn2ncnc12` [Example 58], for which the EC50 is 16.6 nM on TLR7 and 21.1 nM at TLR8.

As for `Cc1cc(-c2[nH]c3cc(C(=O)N4C[C@H](N)C[C@H](C(F)(F)F)C4)sc3c2C(C)C)cn2ncnc12` [Example 59], the 50% effective concentration (EC50) at TLR7 is 24.1 nM; on TLR8, 15.4 nM.

On to `Cc1cc(-c2[nH]c3cc(C(=O)N(C)[C@@H]4CNC[C@H]4F)sc3c2C(C)C)cn2ncnc12` [Example 60], for which the concentration for a half-maximal effect (EC50) came to 4.1 nM at TLR7 and 30.8 nM on TLR8.

As for `Cc1cc(-c2[nH]c3cc(C(=O)N(C)[C@H]4CNC[C@H]4F)sc3c2C(C)C)cn2ncnc12` [Example 61], the EC50 at TLR7 is 7.9 nM; on TLR8, 17.4 nM.

As for `CCc1c(-c2cc(C)c3ncnn3c2)[nH]c2cc(C(=O)N3CCNCC3)sc12` [Example 62, [6-ethyl-5-(8-methyl-[1,2,4]triazolo[1,5-a]pyridin-6-yl)-4H-thieno[3,2-b]pyrrol-2-yl]-piperazin-1-yl-methanone], the EC50 at TLR7 was 5.5 nM; at TLR8, 5.7 nM.

On to `CCc1c(-c2cc(C)c3ncnn3c2)[nH]c2cc(C(=O)N(C)C3CCNCC3)sc12` [Example 63], for which the EC50 at TLR7 was 0.7 nM; on TLR8 it was 15.6 nM.

As for `COc1cc(-c2[nH]c3cc(C(=O)N4CCNCC4)sc3c2C(C)C)cn2ncnc12` [Example 64, (6-isopropyl-5-(8-methoxy-[1,2,4]triazolo[1,5-a]pyridin-6-yl)-4H-thieno[3,2-b]pyrrol-2-yl)(piperazin-1-yl)methanone], the concentration for a half-maximal effect (EC50) stood at 0.9 nM on TLR7 and 3.3 nM on TLR8.

On to `Cc1cc(-c2[nH]c3cc(C(=O)N4CCNCC4)sc3c2C(C)C)cn2nnnc12` [Example 65], for which the half-maximal effective concentration (EC50) on TLR7 was 1.8 nM; at TLR8, 5.4 nM.

Consider `CC(C)c1c(-c2ccc3ncnn3c2)[nH]c2cc(C(=O)N3CCNCC3)sc12` [Example 66], for which the EC50 was 25.7 nM at TLR7 and 16.1 nM on TLR8.

As to `CC(C)c1c(-c2ccc3nccn3c2)[nH]c2cc(C(=O)N3CCNCC3)sc12` [Example 67], the concentration giving a half-maximal response (EC50) at TLR7 was found to be 6.3 nM; at TLR8, 131 nM.

In the case of `CC(C)c1c(-c2ccn3ccnc3c2)[nH]c2cc(C(=O)N3CCNCC3)sc12` [Example 68], the EC50 at TLR7 was 822 nM; on TLR8, > 1000 nM.

In the case of `Cc1cc(-c2[nH]c3cc(C(=O)N4CCN(CCO)CC4)sc3c2C(C)C)cn2ncnc12` [Example 69], the EC50 came to 24.4 nM at TLR7 and 9.2 nM at TLR8.

Regarding `Cc1cc(-c2[nH]c3cc(C4=NCC5(CCNCC5)O4)sc3c2C(C)C)cn2ncnc12` [Example 70], the half-maximal effective concentration (EC50) is 0.2 nM on TLR7 and 9.3 nM on TLR8.

As for `Cc1cc(-c2[nH]c3cc(-c4nnc(C5CCC(N)CC5)o4)sc3c2C(C)C)cc(C)n1` (stereo not drawn) [Example 71], the EC50 was 22.3 nM at TLR7 and 23.6 nM on TLR8.

Turning to `CN[C@@H]1CCN(C(=O)c2cc3[nH]c(-c4cc(C)c5ncnn5c4)c(C(C)C)c3s2)C1` [Example 72], the half-maximal effective concentration (EC50) was found to be 1.9 nM at TLR7 and 1.1 nM at TLR8.

On to `CN[C@H]1CCN(C(=O)c2cc3[nH]c(-c4cc(C)c5ncnn5c4)c(C(C)C)c3s2)C1` [Example 73], for which the EC50 stood at 4.9 nM on TLR7 and 1.7 nM on TLR8.

As to `Cc1cc(-c2[nH]c3cc(C(=O)N4C[C@@H]5[C@@H](N)[C@@H]5C4)sc3c2C(C)C)cn2ncnc12` [Example 74], the concentration for a half-maximal effect (EC50) on TLR7 and on TLR8 was 10.5 nM in each case.

`Cc1cc(-c2[nH]c3cc(C(=O)N(C)[C@H]4[C@@H]5CNC[C@@H]54)sc3c2C(C)C)cn2ncnc12` [Example 75]: the concentration for a half-maximal effect (EC50) on TLR7 turned out to be 1.6 nM; on TLR8 it was 14 nM.

In the case of `Cc1cc(-c2[nH]c3cc(C(=O)N(C)[C@@H]4CCNC[C@H]4F)sc3c2C(C)C)cn2ncnc12` [Example 76], the concentration giving a half-maximal response (EC50) was found to be 0.6 nM at TLR7 and 6.5 nM at TLR8.

As to `Cc1cc(-c2[nH]c3cc(C(=O)N4C[C@@H](N)C[C@@H](C(F)(F)F)C4)sc3c2C(C)C)cn2ncnc12` [Example 77], the results for the EC50 at TLR7 and at TLR8 were 9 nM and 40.3 nM, respectively.

Regarding `Cc1cc(-c2[nH]c3cc(C(=O)N(C)[C@H]4CCNC[C@@H]4F)sc3c2C(C)C)cn2ncnc12` [Example 78], the concentration giving a half-maximal response (EC50) turned out to be 0.4 nM on TLR7 and 8.6 nM at TLR8.

Regarding `Cc1cc(-c2[nH]c3cc(C(=O)N(C)[C@@H]4CCNC[C@@H]4F)sc3c2C(C)C)cn2ncnc12` [Example 79], the EC50 on TLR7 worked out at 0.3 nM; on TLR8, 9.1 nM.

On to `Cc1cc(-c2[nH]c3cc(C(=O)N(C)[C@H]4CCNC[C@H]4F)sc3c2C(C)C)cn2ncnc12` [Example 80], for which the concentration for a half-maximal effect (EC50) at TLR7 came out at 0.5 nM; at TLR8, 9.5 nM.

With `Cc1cc(-c2[nH]c3cc(C(=O)N(C)[C@H]4CCNCC4(F)F)sc3c2C(C)C)cn2ncnc12` [Example 81], the half-maximal effective concentration (EC50) at TLR7 was 10.3 nM; on TLR8 it was 91 nM.

As to `Cc1cc(-c2[nH]c3cc(C(=O)N(C)[C@@H]4CCN(C5CCC5)C[C@@H]4F)sc3c2C(C)C)cn2ncnc12` [Example 83], the values for the EC50 on TLR7 and on TLR8 were 17.8 nM and 17.7 nM, respectively.

For `Cc1cc(-c2[nH]c3cc(C(=O)N(C4CCC4)C4CCNCC4)sc3c2C(C)C)cn2ncnc12` [Example 84], the EC50 on TLR7 came out at 1.1 nM; on TLR8, 25.1 nM.

Consider `Cc1cc(-c2[nH]c3cc(C(=O)N4CCNC(C)(C)C4)sc3c2C(C)C)cn2ncnc12` [Example 85], for which the EC50 at TLR7 turned out to be 1.3 nM; on TLR8 it was 0.6 nM.

Consider `Cc1c(-c2[nH]c3cc(C(=O)N4CCNC(C)(C)C4)sc3c2C(C)C)cn2ncnc2c1C` [Example 86], for which the EC50 on TLR7 amounted to 1 nM; at TLR8, 0.3 nM.
